One assay concerns the target T1, human vanilloid-1 (hVR1) (Homo sapiens, UniProt Q8NER1).
T1 construct: expressed in transfected cells; host or cells: HEK293 Tet-on (hVR1-HEK293), doxycycline-induced
Nature of the assay: Calcium influx of vanilloid receptor in hVR1-HEK293 cells (capsaicin-induced, Fluo-3/AM). It counts as cell-based. Particulars: 1 μM capsaicin-induced intracellular calcium influx, read-out: Inhibitory Activity IC50. In a few lines:
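HEK293 Tet-on cells expressing human VR1 were induced with deoxycycline and loaded with Fluo-3/AM for 90 min at 37 °C. Cells were given test compound at several concentrations, then stimulated with 1 μM capsaicin. Inhibition of the calcium fluorescence signal was fitted with the Hill equation.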

Assay [1] relates to ICR male mice (PBQ-induced writhing). Nature of the assay: PBQ-induced writhing test for analgesic effect. Particulars: Mus musculus, 1 h, 20 mg/kg oral, one hour before intraabdominal PBQ (0.02%), read-out: % Inhibition (decrease in number of writhes compared to control). It counts as in vivo. As to the method:
A PBQ-induced writhing test was conducted in mice to assay for the analgesic effect of the novel compounds. Five-week-old ICR male mice were treated with PBQ (phenyl-p-quinone, 0.02%). A suspension of 20 mg of test material in 10 mL of physiological saline was used per kg of weight of mice. Test materials in combination with a carrier were orally administered one hour before the intraabdominal injection of PBQ in a dose of 10 mL per kg weight. From 5 min after the injection, individual mice in each test group were measured for numbers of writhes at regular intervals of 10 min. Analgesic effects of test compounds were expressed as percentages of the decrease in number of writhes compared to a control. [% Inhibition=(Control administered with carrier alone−Group administered with test material)/control administered with carrier alone×100]

The target in the next assay is T2, rat TRPV1 (Rattus norvegicus, UniProt O35433).
T2 construct: expressed in transfected cells; host or cells: HEK293
T2 sequence (O35433 whole entry): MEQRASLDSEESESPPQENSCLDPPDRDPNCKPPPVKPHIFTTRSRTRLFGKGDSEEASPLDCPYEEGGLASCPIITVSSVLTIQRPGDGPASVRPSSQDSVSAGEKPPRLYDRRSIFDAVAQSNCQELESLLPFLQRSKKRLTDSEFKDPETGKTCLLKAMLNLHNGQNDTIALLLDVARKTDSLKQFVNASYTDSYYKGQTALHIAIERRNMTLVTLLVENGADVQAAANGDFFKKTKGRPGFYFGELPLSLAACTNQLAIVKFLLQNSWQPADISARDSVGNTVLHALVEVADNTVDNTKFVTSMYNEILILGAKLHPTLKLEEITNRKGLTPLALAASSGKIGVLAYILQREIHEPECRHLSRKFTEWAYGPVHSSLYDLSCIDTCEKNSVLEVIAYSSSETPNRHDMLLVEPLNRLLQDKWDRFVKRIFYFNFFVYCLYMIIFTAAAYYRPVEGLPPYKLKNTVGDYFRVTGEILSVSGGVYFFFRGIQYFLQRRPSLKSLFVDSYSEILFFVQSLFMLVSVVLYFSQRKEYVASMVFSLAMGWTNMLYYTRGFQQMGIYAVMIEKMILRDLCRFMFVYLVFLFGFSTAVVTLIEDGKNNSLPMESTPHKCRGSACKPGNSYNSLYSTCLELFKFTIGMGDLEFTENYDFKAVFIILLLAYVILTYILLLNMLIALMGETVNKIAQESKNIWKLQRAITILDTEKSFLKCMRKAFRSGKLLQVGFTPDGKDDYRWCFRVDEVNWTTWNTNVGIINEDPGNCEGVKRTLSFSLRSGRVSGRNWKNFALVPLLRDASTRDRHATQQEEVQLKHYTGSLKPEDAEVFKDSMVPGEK
Put plainly: Assay for inhibitory activity against VR1 patch clamp activity (capsaicin current, inside-out patch). Particulars: 1 μM compound with 10 μM capsaicin; rat TRPV1-transfected HEK293, inside-out patch; relative to capsaicin current before compound. The assay is classed as cell-based. As to the method:
Each of the compounds synthesized in the examples were dissolved in dimethyl sulfoxide (DMSO) at a concentration of 10 mM. For use in the assay for inhibitory activity against patch clamp activity, the solutions were diluted to a concentration of 1 μM with the same physiological saline as in the pipette solution of Table 1, below.
2) Assay for Inhibitory Activity Against VR1 Patch Clamp Activity
In this experiment, changes in VR1 activity were recorded in current using an electrophysiological technique.
For use in this experiment, a rat TRPV1 cDNA was transfected into a subcultured HEK293 strain with the aid of lipofectamin.
The rat TRPV1 gene-transfected HEK293 cells were detached from the cell culture dishes with trypsin and distributed on a patch clamp recording chamber.
A cover glass slip on the bottom of the patch clamp recording chamber was treated for 15 min or longer with a […] poly-L-lysine solution so that the HEK cells would readily adhere thereto. Cellular membranes were ruptured at room temperature (˜25° C.) from randomly selected HEK cells to perform an inside-out patch clamp technique. 10 μM of capsaicin was fed into the chamber (cytoplasmic side) to activate a capsaicin current through the VR1. When the capsaicin current reached a stable stage, each compound was added along with 10 μM of capsaicin to record the inhibitory activity of the compounds with regard to the current. The inhibition was expressed as percentages.
Detected current was amplified using a Digidata 1200B A/D converter and an Axopatch 1D amplifier (Axon instruments Inc.), and the data were recorded and analyzed with the aid of a computer. The inhibitory activity of each compound was expressed as a percentage relative to the capsaicin current immediately before the administration of each compound.

This is an account of results in patent publication US9199965B2, “Benzoimidazole derivatives and pharmaceutical composition comprising the same” (Daewoong Co., Ltd., priority 2005, dated 2015).

T1 sequence (Q8NER1 whole entry): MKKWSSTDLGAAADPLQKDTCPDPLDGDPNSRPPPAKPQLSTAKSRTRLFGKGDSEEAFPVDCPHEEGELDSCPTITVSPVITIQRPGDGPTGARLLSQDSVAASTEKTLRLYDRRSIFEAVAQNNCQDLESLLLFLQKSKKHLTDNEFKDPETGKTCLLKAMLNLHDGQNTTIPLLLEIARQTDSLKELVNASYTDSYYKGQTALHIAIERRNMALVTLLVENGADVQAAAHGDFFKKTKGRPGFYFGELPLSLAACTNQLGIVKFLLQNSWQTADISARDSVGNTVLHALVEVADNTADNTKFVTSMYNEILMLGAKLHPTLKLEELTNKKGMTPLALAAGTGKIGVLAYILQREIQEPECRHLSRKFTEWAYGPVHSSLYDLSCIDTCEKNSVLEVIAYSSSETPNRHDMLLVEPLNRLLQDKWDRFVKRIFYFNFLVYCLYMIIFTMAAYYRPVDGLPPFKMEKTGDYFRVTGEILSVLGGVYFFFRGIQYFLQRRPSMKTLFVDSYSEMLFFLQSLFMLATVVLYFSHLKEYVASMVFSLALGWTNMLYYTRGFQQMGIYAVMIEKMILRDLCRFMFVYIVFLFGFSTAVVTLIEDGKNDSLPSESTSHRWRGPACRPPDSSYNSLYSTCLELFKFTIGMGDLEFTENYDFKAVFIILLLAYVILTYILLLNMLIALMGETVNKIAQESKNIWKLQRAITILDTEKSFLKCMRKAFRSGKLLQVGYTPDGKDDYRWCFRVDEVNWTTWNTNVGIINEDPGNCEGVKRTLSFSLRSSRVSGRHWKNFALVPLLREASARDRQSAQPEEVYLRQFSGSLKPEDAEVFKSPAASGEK

On to `CC(C)(C)c1ccc2nc(-c3ccc(-c4ncccc4Cl)cc3F)[nH]c2c1` [Compound 67, 6-tert-butyl-2-[4-(3-chloropyridin-2-yl)-2-fluorophenyl]-1H-benzoimidazole], for which the IC50 at human vanilloid-1 (hVR1) is 122 nM. In assay [1], the inhibition in vivo at 20 mg/kg is 23%. The inhibition at 1 µM on rat TRPV1 was 80%.
With `FC(F)(F)c1cc(C(F)(F)F)c2nc(-c3ccc(-c4ncccc4C(F)(F)F)cc3)[nH]c2c1` [Compound 33, 4,6-bistrifluoromethyl-2-[4-(3-trifluoromethylpyridin-2-yl)phenyl]-1H-benzoimidazole], at human vanilloid-1 (hVR1), the IC50 is 10 nM. Besides, in assay [1], the inhibition in vivo at 20 mg/kg stood at 31%. In addition, the inhibition at 1 µM against rat TRPV1 was 10%.
On the same counts, the results for `CC(C)(C)c1ccc2nc(-c3ccc(-c4ncccc4Cl)cc3)[nH]c2c1` [Compound 3, 6-tert-butyl-2-[4-(3-chloropyridin-2-yl)phenyl]-1H-benzoimidazole] are 61 nM, 58% and 100%.
On the same counts, the results for `CS(=O)(=O)Nc1ccc(-c2ccc(-c3nc4c(C(F)(F)F)cc(C(F)(F)F)cc4[nH]3)cc2)cc1F` [Compound 29, N-[4′-(4,6-bistrifluoromethyl-1H-benzoimidazole-2-yl)-3-fluorobiphenyl-4-yl]methanesulfonamide] are 4 nM, 41% and 50%.
On the same counts, the results for `FC(F)(F)c1cc(Cl)c2nc(-c3ccc(-c4ncccc4Cl)cn3)[nH]c2c1` [Compound 138, 3-chloro-6′-(4-chloro-6-trifluoromethyl-1H-benzoimidazole-2-yl)-[2,3′]bipyridine] are 16 nM, 22% and 73%.
For `CC(C)(C)c1ccc2nc(-c3ccc(-c4ncccc4Cl)c4ccccc34)[nH]c2c1` [Compound 105, 6-tert-butyl-2-[4-(3-chloropyridin-2-yl)naphthalen-1-yl]-1H-benzoimidazole], on human vanilloid-1 (hVR1), the IC50 turned out to be 24 nM. The inhibition in vivo at 20 mg/kg in assay [1] turned out to be 50%. At rat TRPV1, testing at 1 µM gave an inhibition of 78%.
On the same counts, the results for `FC(F)(F)c1cc(Cl)c2nc(-c3ccc(-c4ncccc4C(F)(F)F)cc3)[nH]c2c1` [Compound 31, 4-chloro-6-trifluoromethyl-2-[4-(3-trifluoromethylpyridin-2-yl)phenyl]-1H-benzoimidazole] are 8 nM, 35% and 66%.
The matching figures for `FC(F)(F)c1ccc2nc(-c3ccc(-c4ncccc4Cl)cc3)[nH]c2c1` [Compound 1, 2-[4-(3-Chloropyridin-2-yl)-phenyl]-6-trifluoromethyl-1H-benzoimidazole]: 130 nM, 33% and 100%.
Turning to `FC(F)(F)c1cc(Cl)c2nc(-c3ccc(-c4ncccc4Cl)cc3)[nH]c2c1` [Compound 6, 4-chloro-2-[4-(3-chloropyridin-2-yl)phenyl]-6-trifluoromethyl-1H-benzoimidazole], the IC50 at human vanilloid-1 (hVR1) stood at 11 nM. In addition, the inhibition in vivo at 20 mg/kg in assay [1] stood at 33%. In addition, 1 µM produced 94% inhibition at rat TRPV1.
As for `FC(F)(F)c1cc(C(F)(F)F)c2nc(-c3ccc(-c4ncccc4Cl)cn3)[nH]c2c1` [Compound 139, 6′-(4,6-bistrifluoromethyl-1H-benzoimidazole-2-yl)-3-chloro-[2,3′]bipyridine], the IC50 at human vanilloid-1 (hVR1) stood at 38 nM. Further, the inhibition in vivo at 20 mg/kg in assay [1] turned out to be 26%. In addition, the inhibition at 1 µM against rat TRPV1 amounted to 89%.
The matching figures for `FC(F)(F)c1cc(C(F)(F)F)c2nc(-c3ccc(-c4ncccc4C(F)(F)F)cn3)[nH]c2c1` [Compound 162, 6′-(4,6-bistrifluoromethyl-1H-benzoimidazole-2-yl)-3-trifluoromethyl-[2,3′]bipyridine]: 14 nM, 28% and 99%.
On the same counts, the results for `FC(F)(F)c1ccc2nc(-c3ccc(-c4ncccc4C(F)(F)F)cn3)[nH]c2c1` [Compound 158, 3-trifluoromethyl-6′-(6-trifluoromethyl-1H-benzoimidazole-2-yl)-[2,3′]bipyridine] are 14 nM, 53% and 69%.
The matching figures for `FC(F)(F)c1cnc2nc(-c3ccc(-c4ncccc4Cl)c4ccccc34)[nH]c2c1` [Compound 107, 2-[4-(3-chloropyridin-2-yl)naphthalen-1-yl]-6-trifluoromethyl-1H-imidazo[4,5-b]pyridine]: 17 nM, 46% and 97%.
